test system: HIV-IIIb; experiment: Antiviral assay in MT4 cells; type: cell-based; details: Human immunodeficiency virus 1, MT4, 120 h; MT-4 cells mixed with HIV-IIIb at m.o.i. 0.003; 5 days at 37° C.; CellTiter-Glo luminescence; 50% decrease in signal, a measure of HIV-1 replication
Protocol: Antiviral Assay in MT4 Cells For the antiviral assay, 40 μL of a concentration required to achieve a final effective 1× test concentration of 3-fold serially diluted compound in culture medium with 10% FBS was added to each well of a 384-well plate (10 concentrations) in quadruplicate. MT-4 cells were next mixed with HIV-IIIb at an m.o.i of 0.003 for 1 hour, after which time 35 μL of virus/cell mixture (2000 cells) was immediately added to each well containing 40 μL of diluted compound. The plates were then incubated at 37° C. for 5 days. After 5 days of incubation, 25 μl of 2× concentrated CellTiter-Glom Reagent (catalog #G7571, Promega Biosciences, Inc., Madison, WI) was added to each well containing MT-4 cells. Cell lysis was carried out by incubating at room temperature for 10 min and then chemiluminescence was read.

Structure (SMILES) | EC50 [nM]
NC(=O)c1cc(-c2cc3sc(NCCN4CCOCC4)nc3nc2[C@H](Cc2cc(F)cc(F)c2)NC(=O)Cn2nc(C(F)F)c3c2C(F)(F)CCC3(F)F)ccc1F [Compound 8, (S)-5-(5-(1-(2-(3-(difluoromethyl)-4,4,7,7-tetrafluoro-4,5,6,7-tetrahydro-1H-indazol-1-yl)acetamido)-2-(3,5-difluorophenyl)ethyl)-2-((2-morpholinoethyl)amino)thiazolo[4,5-b]pyridin-6-yl)-2-fluorobenzamide] | 162
COCCNc1nc2nc([C@H](Cc3cc(F)cc(F)c3)NC(=O)Cn3nc(C(F)F)c4c3C(F)(F)CCC4(F)F)c(-c3ccc(F)c(C(N)=O)c3)cc2s1 [Compound 12, (S)-5-(5-(1-(2-(3-(difluoromethyl)-4,4,7,7-tetrafluoro-4,5,6,7-tetrahydro-1H-indazol-1-yl)acetamido)-2-(3,5-difluorophenyl)ethyl)-2-((2-methoxyethyl)amino)thiazolo[4,5-b]pyridin-6-yl)-2-fluorobenzamide] | 158
O=C(Cn1nc(C(F)F)c2c1C(F)(F)[C@@H]1C[C@H]21)N[C@@H](Cc1cc(F)cc(F)c1)c1ccc2sc(-c3ccc4c(c3)C(=O)NC4)nc2n1 [Compound 23-1, 2-((3bS,4aR)-3-(difluoromethyl)-5,5-difluoro-3b,4,4a,5-tetrahydro-1H-cyclopropa[3,4]cyclopenta[1,2-c]pyrazol-1-yl)-N—((S)-2-(3,5-difluorophenyl)-1-(2-(3-oxoisoindolin-5-yl)thiazolo[4,5-b]pyridin-5-yl)ethyl)acetamide] | 1930
O=C(Cn1nc(C(F)(F)F)c2c1C(F)(F)[C@@H]1C[C@H]21)N[C@@H](Cc1cc(F)cc(F)c1)c1nc2nc(-c3ccc(N4CCOCC4)cc3)sc2cc1-c1ccc2c(c1)C(=O)NC2 [Compound 144, 2-((3bS,4aR)-5,5-difluoro-3-(trifluoromethyl)-3b,4,4a,5-tetrahydro-1H-cyclopropa[3,4]cyclopenta[1,2-c]pyrazol-1-yl)-N—((S)-2-(3,5-difluorophenyl)-1-(2-(4-morpholinophenyl)-6-(3-oxoisoindolin-5-yl)thiazolo[4,5-b]pyridin-5-yl)ethyl)acetamide] | 44.4
NC(=O)c1cc(-c2cc3sc(N4CCC5(CC4)CNC(=O)O5)nc3nc2[C@H](Cc2cc(F)cc(F)c2)NC(=O)Cn2nc(C(F)(F)F)c3c2C(F)(F)[C@@H]2C[C@H]32)ccc1F [Compound 29, 5-(5-((S)-1-(2-((3bS,4aR)-5,5-difluoro-3-(trifluoromethyl)-3b,4,4a,5-tetrahydro-1H-cyclopropa[3,4]cyclopenta[1,2-c]pyrazol-1-yl)acetamido)-2-(3,5-difluorophenyl)ethyl)-2-(2-oxo-1-oxa-3,8-diazaspiro[4.5]decan-8-yl)thiazolo[4,5-b]pyridin-6-yl)-2-fluorobenzamide] | 121
O=C(Cn1nc(C(F)(F)F)c2c1C(F)(F)[C@@H]1C[C@H]21)N[C@@H](Cc1cc(F)cc(F)c1)c1nc2nc(-c3ccc(N4CCNCC4)cc3)sc2cc1-c1ccc2c(c1)C(=O)NC2 [Compound 147, 2-((3bS,4aR)-5,5-difluoro-3-(trifluoromethyl)-3b,4,4a,5-tetrahydro-1H-cyclopropa[3,4]cyclopenta[1,2-c]pyrazol-1-yl)-N—((S)-2-(3,5-difluorophenyl)-1-(6-(3-oxoisoindolin-5-yl)-2-(4-(piperazin-1-yl)phenyl)thiazolo[4,5-b]pyridin-5-yl)ethyl)acetamide] | 37
NC(=O)c1cc(-c2cc3sc(N4CCNC(=O)C4)nc3nc2[C@H](Cc2cc(F)cc(F)c2)NC(=O)Cn2nc(C(F)(F)F)c3c2C(F)(F)[C@@H]2C[C@H]32)ccc1F [Compound 33, 5-(5-((S)-1-(2-((3bS,4aR)-5,5-difluoro-3-(trifluoromethyl)-3b,4,4a,5-tetrahydro-1H-cyclopropa[3,4]cyclopenta[1,2-c]pyrazol-1-yl)acetamido)-2-(3,5-difluorophenyl)ethyl)-2-(3-oxopiperazin-1-yl)thiazolo[4,5-b]pyridin-6-yl)-2-fluorobenzamide] | 88.3

Other lines, results leading:

EC50 [nM] | Structure (SMILES)
36.8 | Cn1nc(NS(C)(=O)=O)c2c(Cl)ccc(-c3cc4[nH]c(=O)[nH]c4nc3[C@H](Cc3cc(F)cc(F)c3)NC(=O)Cn3nc(C(F)F)c4c3C(F)(F)[C@@H]3C[C@H]43)c21 [Example 109, N—((S)-1-(6-(4-chloro-1-methyl-3-(methylsulfonamido)-1H-indazol-7-yl)-2-oxo-2,3-dihydro-1H-imidazo[4,5-b]pyridin-5-yl)-2-(3,5-difluorophenyl)ethyl)-2-((3bS,4aR)-3-(difluoromethyl)-5,5-difluoro-3b,4,4a,5-tetrahydro-1H-cyclopropa[3,4]cyclopenta[1,2-c]pyrazol-1-yl)acetamide]
11.9 | Cn1nc(NS(C)(=O)=O)c2c(Cl)ccc(-c3cc4nc(C5CC5)oc4nc3[C@H](Cc3cc(F)cc(F)c3)NC(=O)Cn3nc(C(F)F)c4c3C(F)(F)[C@@H]3C[C@H]43)c21 [Example 110, N—((S)-1-(6-(4-chloro-1-methyl-3-(methylsulfonamido)-1H-indazol-7-yl)-2-cyclopropyloxazolo[5,4-b]pyridin-5-yl)-2-(3,5-difluorophenyl)ethyl)-2-((3bS,4aR)-3-(difluoromethyl)-5,5-difluoro-3b,4,4a,5-tetrahydro-1H-cyclopropa[3,4]cyclopenta[1,2-c]pyrazol-1-yl)acetamide]
14.1 | CN(C)c1ncc(-c2nc3nc([C@H](Cc4cc(F)cc(F)c4)NC(=O)Cn4nc(C(F)(F)F)c5c4C(F)(F)[C@@H]4C[C@H]54)c(-c4cccc5c(NS(C)(=O)=O)nn(C)c45)cc3s2)cn1 [Compound 151, 2-((3bS,4aR)-5,5-difluoro-3-(trifluoromethyl)-3b,4,4a,5-tetrahydro-1H-cyclopropa[3,4]cyclopenta[1,2-c]pyrazol-1-yl)-N—((S)-2-(3,5-difluorophenyl)-1-(2-(2-(dimethylamino)pyrimidin-5-yl)-6-(1-methyl-3-(methylsulfonamido)-1H-indazol-7-yl)thiazolo[4,5-b]pyridin-5-yl)ethyl)acetamide]
7 | Cn1nc(N)c2c(Cl)ccc(-c3cc4sc(NCC(C)(C)O)nc4nc3[C@H](Cc3cc(F)cc(F)c3)NC(=O)Cn3nc(C(F)(F)F)c4c3C(F)(F)[C@@H]3C[C@H]43)c21 [Example 115, N—((S)-1-(6-(3-amino-4-chloro-1-methyl-1H-indazol-7-yl)-2-((2-hydroxy-2-methylpropyl)amino)thiazolo[4,5-b]pyridin-5-yl)-2-(3,5-difluorophenyl)ethyl)-2-((3bS,4aR)-5,5-difluoro-3-(trifluoromethyl)-3b,4,4a,5-tetrahydro-1H-cyclopropa[3,4]cyclopenta[1,2-c]pyrazol-1-yl)acetamide]
6.6 | Cn1nc(NS(C)(=O)=O)c2cccc(-c3cc4sc(N5CCOCC5)nc4nc3[C@H](Cc3cc(F)cc(F)c3)NC(=O)Cn3nc(C(F)(F)F)c4c3C(F)(F)[C@@H]3C[C@H]43)c21 [Example 82, 2-((3bS,4aR)-5,5-difluoro-3-(trifluoromethyl)-3b,4,4a,5-tetrahydro-1H-cyclopropa[3,4]cyclopenta[1,2-c]pyrazol-1-yl)-N—((S)-2-(3,5-difluorophenyl)-1-(6-(1-methyl-3-(methylsulfonamido)-1H-indazol-7-yl)-2-morpholinothiazolo[4,5-b]pyridin-5-yl)ethyl)acetamide]
10 | CCS(=O)(=O)Nc1nn(C)c2c(-c3cc4sc(NCC(C)(C)O)nc4nc3[C@H](Cc3cc(F)cc(F)c3)NC(=O)Cn3nc(C(F)F)c4c3C(F)(F)[C@@H]3C[C@H]43)cccc12 [Compound 61, 2-((3bS,4aR)-3-(difluoromethyl)-5,5-difluoro-3b,4,4a,5-tetrahydro-1H-cyclopropa[3,4]cyclopenta[1,2-c]pyrazol-1-yl)-N—((S)-2-(3,5-difluorophenyl)-1-(6-(3-(ethylsulfonamido)-1-methyl-1H-indazol-7-yl)-2-((2-hydroxy-2-methylpropyl)amino)thiazolo[4,5-b]pyridin-5-yl)ethyl)acetamide]
11.3 | C[C@@H]1CN(c2nc3nc([C@H](Cc4cc(F)cc(F)c4)NC(=O)Cn4nc(C(F)(F)F)c5c4C(F)(F)[C@@H]4C[C@H]54)c(-c4cccc5c(NS(C)(=O)=O)nn(C)c45)cc3s2)CCN1 [Example 89, 2-((3bS,4aR)-5,5-difluoro-3-(trifluoromethyl)-3b,4,4a,5-tetrahydro-1H-cyclopropa[3,4]cyclopenta[1,2-c]pyrazol-1-yl)-N—((S)-2-(3,5-difluorophenyl)-1-(6-(1-methyl-3-(methylsulfonamido)-1H-indazol-7-yl)-2-((R)-3-methylpiperazin-1-yl)thiazolo[4,5-b]pyridin-5-yl)ethyl)acetamide]
8.6 | Cn1cc(-c2nc3nc(C(Cc4cc(F)cc(F)c4)NC(=O)Cn4nc(C(F)(F)F)c5c4C(F)(F)[C@@H]4C[C@H]54)c(-c4cccc5c(NS(C)(=O)=O)nn(C)c45)cc3s2)cn1 (stereo partly drawn) [Example 123, 2-((3bS,4aR)-5,5-difluoro-3-(trifluoromethyl)-3b,4,4a,5-tetrahydro-1H-cyclopropa[3,4]cyclopenta[1,2-c]pyrazol-1-yl)-N-(2-(3,5-difluorophenyl)-1-(2-(1-methyl-1H-pyrazol-4-yl)-6-(1-methyl-3-(methylsulfonamido)-1H-indazol-7-yl)thiazolo[4,5-b]pyridin-5-yl)ethyl)acetamide]

— patent publication US12077537B2 (Gilead Sciences, Inc., priority 2020, dated 2024)
